Assay results as given in publication PMC8850549 (Toxicology Reports, 2022).
“And” between values parts separate entries of the source, which are not always exact repeats. Equal entries are not always repeated. “Also recorded” adds a separate entry of the source. Where two headings read alike, the source gives them in different places.

Key:
[1] = test system: Salmonella typhimurium TA1535; test: Bacterial reverse mutation test; format: cell-based; settings: for mutagenic response (increase in mutation frequencies): with rat liver S9, preincubation and plate incorporation; for fold increase in mutation frequencies: rat liver S9, 5000 μg/plate
[2] = test system: Salmonella typhimurium TA100; test: Bacterial reverse mutation test; format: cell-based; settings: for mutagenic response (increase in mutation frequencies): with rat liver S9, preincubation and plate incorporation
E. coli WP2 uvrA = test: Bacterial reverse mutation test; format: cell-based; settings: for mutagenic response (increase in mutation frequencies): with rat liver S9, preincubation and plate incorporation
TA98 = test: Bacterial reverse mutation test; format: cell-based, Salmonella typhimurium; settings: under any condition (preincubation or plate incorporation, with or without S9)
TA1535 = settings: cited from earlier work
TA1537 = test: Bacterial reverse mutation test; format: cell-based, Salmonella typhimurium; settings: under any condition (preincubation or plate incorporation, with or without S9)
bacterial mutagenicity = settings: cited from earlier work
[3] = test system: Salmonella typhimurium and E. coli strains; test: Bacterial reverse mutation test; format: cell-based; settings: rat liver S9, solvent water
[4] = plate incorporation, solvent DMSO, rat liver S9, at 5000 μg/plate only
[5] = preincubation, solvent water, rat liver S9, 5000 μg/plate

SMILES: CCCCN(CCCC)N=O [NDBA, N-nitrosodibutylamine]
- fold induction, plate incorporation compared with preincubation ([1]; rat liver S9, solvent DMSO): higher fold inductions using the plate incorporation protocol
- mutagenic response (increase in mutation frequencies) [1]: relevant increases
- mutagenic response (increase in mutation frequencies) [2]: relevant increases
- fold induction, plate incorporation compared with preincubation (E. coli WP2 uvrA; rat liver S9, solvent DMSO): higher fold inductions using the plate incorporation protocol
- mutagenic response (increase in mutation frequencies) (E. coli WP2 uvrA): relevant increases

SMILES: CCN(CC)N=O [NDEA, N-nitrosodiethylamine]
- fold increase in mutation frequencies (above threshold) [1, 4]: > 3 fold
- fold change with water compared with DMSO as solvent ([1]; preincubation, rat liver S9): slightly increased fold changes; also recorded: slightly higher mutation frequencies
- fold increase in mutation frequencies ([1]; preincubation, solvent DMSO): ~5 fold and 4 fold
- fold increase in mutation frequencies ([1]; preincubation, solvent water): ~9 fold
- mutagenic response (increase in mutation frequencies) [1]: exponential increase in mutation frequencies
- mutagenic response (TA98): no response
- fold increase in mutation frequencies (above threshold) [2, 4]: > 2 fold
- fold change with water compared with DMSO as solvent ([2]; preincubation, rat liver S9): no change
- fold increase in mutation frequencies [2, 5]: about 4 fold
- mutagenic response (increase in mutation frequencies) [2]: exponential increase in mutation frequencies
- mutagenicity (TA1535; hamster S9): mutagenic
- mutagenicity (TA1535; rat S9): not with rat S9
- fold increase in mutation frequencies (E. coli WP2 uvrA; plate incorporation, solvent DMSO, rat liver S9, top concentration 5000 μg/plate): 12 fold
- fold change with water compared with DMSO as solvent (E. coli WP2 uvrA; preincubation, rat liver S9): slightly increased fold changes; also recorded: slightly higher mutation frequencies
- fold increase in mutation frequencies (E. coli WP2 uvrA; preincubation, solvent DMSO, rat liver S9, 5000 μg/plate): ~30 fold
- fold increase in mutation frequencies (E. coli WP2 uvrA; [5]): ~39 fold
- mutagenic response (increase in mutation frequencies) (E. coli WP2 uvrA): exponential increase in mutation frequencies
- mutagenic response (TA1537): no response

SMILES: CN(C)N=O [NDMA, N-nitrosodimethylamine]
- detection of bacterial mutagenicity (bacterial mutagenicity; plate incorporation): failed
- detection of bacterial mutagenicity (bacterial mutagenicity; preincubation protocol): allowed to detect
- mutagenicity (TA1535; hamster S9): mutagenic
- mutagenicity (TA1535; rat S9): not with rat S9
- detection of mutagenicity ([3]; plate incorporation protocol): fails; also recorded: no clear positive response
- detection of mutagenicity ([3]; preincubation protocol): allows the detection of mutagenicity

SMILES: CCCN(CCC)N=O [NDPA, N-nitrosodipropylamine]
- mutagenic response (increase in mutation frequencies) [1]: relevant increases
- mutagenic response (increase in mutation frequencies) [2]: relevant increases
- mutagenic response (increase in mutation frequencies) (E. coli WP2 uvrA): relevant increases
